Among the data in patent US20230002334A1, “TRPM8 MODULATORS” (Givaudan SA, priority 2019, published 2023) are EC50 values, retold here.

The target of the test is T1, hTRPM8 (Homo sapiens, UniProt Q7Z2W7).
T1 construct: expressed in transfected cells
Kind of test: Assay on TRPM8 modulators: calcium imaging (Fluo-4, Flexstation) in HEK293 cell line stably expressing hTRPM8. It is filed as cell-based. The conditions noted are these: HEK293 cells stably expressing hTRPM8, calcium influx, sigmoidal dose-response fit; read-out: EC50. The gist of the method:
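Calcium influx monitored by Fluo-4 (2.7 μM with […] probenecid, 1 h 37 °C loading) in HEK293 cells stably expressing hTRPM8, in HEPES buffer pH 7.4 with 2 mM CaCl2. Fluorescence read 15 s before and 105 s after adding serial compound dilutions. Maximal activation relative to solvent and 31.6 μM menthol; EC50 from sigmoidal fit.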

Molecules are shown by their SMILES. Structures can show the parent of a compound that is named as a salt.

Usually EC50 stands for the concentration needed to bring the measured effect to its halfway point.

T1 sequence (Q7Z2W7 whole entry): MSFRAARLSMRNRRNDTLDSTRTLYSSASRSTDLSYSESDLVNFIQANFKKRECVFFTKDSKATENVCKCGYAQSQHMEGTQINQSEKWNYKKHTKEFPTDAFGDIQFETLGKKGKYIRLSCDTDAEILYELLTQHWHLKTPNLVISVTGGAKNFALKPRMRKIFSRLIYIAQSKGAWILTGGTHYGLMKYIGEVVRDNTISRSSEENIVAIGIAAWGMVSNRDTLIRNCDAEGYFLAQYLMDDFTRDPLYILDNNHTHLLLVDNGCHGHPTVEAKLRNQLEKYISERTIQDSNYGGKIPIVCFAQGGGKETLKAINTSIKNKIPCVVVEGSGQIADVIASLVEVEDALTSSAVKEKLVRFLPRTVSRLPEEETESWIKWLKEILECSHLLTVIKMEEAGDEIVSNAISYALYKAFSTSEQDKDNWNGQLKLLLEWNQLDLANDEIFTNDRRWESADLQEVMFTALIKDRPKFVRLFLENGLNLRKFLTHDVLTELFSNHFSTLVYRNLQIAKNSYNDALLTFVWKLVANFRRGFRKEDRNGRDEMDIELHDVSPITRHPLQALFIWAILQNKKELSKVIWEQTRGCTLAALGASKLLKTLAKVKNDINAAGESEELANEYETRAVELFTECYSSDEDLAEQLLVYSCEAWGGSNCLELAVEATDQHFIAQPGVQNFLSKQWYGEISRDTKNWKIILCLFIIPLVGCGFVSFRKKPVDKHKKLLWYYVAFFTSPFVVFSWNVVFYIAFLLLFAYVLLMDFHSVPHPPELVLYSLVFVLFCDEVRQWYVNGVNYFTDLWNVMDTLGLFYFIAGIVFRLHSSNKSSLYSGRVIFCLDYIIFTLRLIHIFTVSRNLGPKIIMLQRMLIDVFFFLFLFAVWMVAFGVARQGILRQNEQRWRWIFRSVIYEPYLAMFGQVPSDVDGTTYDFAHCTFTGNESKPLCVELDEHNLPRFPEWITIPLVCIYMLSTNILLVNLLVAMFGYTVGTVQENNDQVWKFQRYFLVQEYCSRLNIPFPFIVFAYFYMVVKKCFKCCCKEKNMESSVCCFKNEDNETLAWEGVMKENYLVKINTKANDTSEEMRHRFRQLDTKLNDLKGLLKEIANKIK

On to `C[C@H]1C[C@@](C)(c2ccc(F)cc2)C[C@H]2[C@H]1N(C)OC2(C)C` (racemic) [Compound 119, rac-(3aS,5R,7S,7aS)-5-(4-fluorophenyl)-1,3,3,5,7-pentamethyloctahydrobenzo[c]isoxazole], for which the EC50 was 0.3 to 1 µM.

On to `C[C@H]1C[C@@](C)(c2ccc(Cl)c(C#N)c2)C[C@@H]2[C@@H]1N(C)OC2(C)C` (racemic) [Compound 121, rac-2-chloro-5-((3aR,5R,7S,7aR)-1,3,3,5,7-pentamethyloctahydrobenzo[c]isoxazol-5-yl)benzonitrile], for which the 50% effective concentration (EC50) is less than 0.05 µM.

On to `C[C@@H]1C[C@@](C)(c2ccc(Cl)c(C#N)c2)C[C@H]2[C@H]1N(C)OC2(C)C` (racemic) [Compound 122, rac-2-chloro-5-((3aS,5R,7R,7aS)-1,3,3,5,7-pentamethyloctahydrobenzo[c]isoxazol-5-yl)benzonitrile], for which the EC50 lay within 1 to 35 µM.

Consider `Cc1ccc([C@@]2(C)C[C@@H]3[C@@H]([C@@H](C)C2)N(C)OC3(C)C)cc1C#N` (racemic) [Compound 123, rac-2-methyl-5-((3aR,5R,7S,7aR)-1,3,3,5,7-pentamethyloctahydrobenzo[c]isoxazol-5-yl)benzonitrile], for which the EC50 lay within 0.05 to 0.3 µM.

For the compound `CCN1OC(C)(C)[C@@H]2C[C@](C)(c3cc(C#N)ccc3C)C[C@H](C)[C@H]21` (racemic) [Compound 125, rac-3-((3aR,5R,7S,7aR)-1-ethyl-3,3,5,7-tetramethyloctahydrobenzo[c]isoxazol-5-yl)-4-methylbenzonitrile], the EC50 is less than 0.05 µM.

Regarding `Cc1ccc(C#N)cc1[C@@]1(C)C[C@@H]2[C@@H]([C@@H](C)C1)N(C(C)C)OC2(C)C` (racemic) [Compound 126, rac-3-((3aR,5R,7S,7aR)-1-isopropyl-3,3,5,7-tetramethyloctahydrobenzo[c]isoxazol-5-yl)-4-methylbenzonitrile], the EC50 was in the range of 0.05 to 0.3 µM.

For `CC(C)N1OC(C)(C)[C@@H]2C[C@](C)(c3cccc(C#N)c3)C[C@H](C)[C@H]21` (racemic) [Compound 127, rac-3-((3aR,5R,7S,7aR)-1-isopropyl-3,3,5,7-tetramethyloctahydrobenzo[c]isoxazol-5-yl)benzonitrile], the EC50 was less than 0.05 µM.

Regarding `COc1ccc(C#N)cc1[C@H]1C[C@@H]2[C@@H]([C@@H](C)C1)N(C(C)C)OC2(C)C` (racemic) [Compound 128, rac-3-((3aR,5R,7S,7aR)-1-isopropyl-3,3,7-trimethyloctahydrobenzo[c]isoxazol-5-yl)-4-methoxybenzonitrile], the EC50 is less than 0.05 µM.

Take `C[C@H]1C[C@@](C)(c2cc(Cl)cc(C#N)c2)C[C@@H]2[C@@H]1N(C)OC2(C)C` (racemic) [Compound 129, rac-3-chloro-5-((3aR,5R,7S,7aR)-1,3,3,5,7-pentamethyloctahydrobenzo[c]isoxazol-5-yl)benzonitrile]: the EC50 was less than 0.05 µM.

As to `Cc1cc(C#N)ccc1[C@@]1(C)C[C@@H]2[C@@H]([C@@H](C)C1)N(C)OC2(C)C` (racemic) [Compound 130, rac-3-methyl-4-((3aR,5R,7S,7aR)-1,3,3,5,7-pentamethyloctahydrobenzo[c]isoxazol-5-yl)benzonitrile], the EC50 was 0.05 to 0.3 µM.

`C[C@H]1C[C@@](C)(c2ccc(C#N)cc2)C[C@@H]2[C@@H]1N(C)OC2(C)C` (racemic) [Compound 131, rac-4-((3aR,5R,7S,7aR)-1,3,3,5,7-pentamethyloctahydrobenzo[c]isoxazol-5-yl)benzonitrile]: the EC50 is 0.05 to 0.3 µM.

Regarding `COc1ccc(C#N)cc1[C@]1(C)C[C@@H](C)[C@@H]2[C@@H](C1)C(C)(C)ON2C` (racemic) [Compound 132, rac-4-methoxy-3-((3aR,5R,7R,7aR)-1,3,3,5,7-pentamethyloctahydrobenzo[c]isoxazol-5-yl)benzonitrile], the EC50 fell in the range of 0.3 to 1 µM.

Take `COc1ccc(C#N)cc1[C@@]1(C)C[C@@H]2[C@@H]([C@@H](C)C1)N(C)OC2(C)C` (racemic) [Compound 133, rac-4-methoxy-3-((3aR,5R,7S,7aR)-1,3,3,5,7-pentamethyloctahydrobenzo[c]isoxazol-5-yl)benzonitrile]: the EC50 is less than 0.05 µM.

On to `Cc1ccc(C#N)c([C@@]2(C)C[C@@H]3[C@@H]([C@@H](C)C2)N(C)OC3(C)C)c1` (racemic) [Compound 134, rac-4-methyl-2-((3aR,5R,7S,7aR)-1,3,3,5,7-pentamethyloctahydrobenzo[c]isoxazol-5-yl)benzonitrile], for which the EC50 was in the range of 0.05 to 0.3 µM.

As for `Cc1ccc(C#N)cc1[C@H]1C[C@@H]2[C@@H]([C@@H](C)C1)N(C)OC2(C)C` (racemic) [Compound 136, rac-4-methyl-3-((3aR,5R,7S,7aR)-1,3,3,7-tetramethyloctahydrobenzo[c]isoxazol-5-yl)benzonitrile], the EC50 fell in the range of 0.05 to 0.3 µM.

For `COC(=O)c1ccc(C)c([C@@]2(C)C[C@@H]3[C@@H]([C@@H](C)C2)N(C)OC3(C)C)c1` (racemic) [Compound 137, rac-methyl 4-methyl-3-((3aR,5R,7S,7aR)-1,3,3,5,7-pentamethyloctahydrobenzo[c]isoxazol-5-yl)benzoate], the EC50 lay within 0.05 to 0.3 µM.

As for `Cc1ccc(C#N)cc1[C@@]1(C)C[C@@H]2[C@@H]([C@@H](C)C1)N(C)OC2(C)C` (stereo in doubt) [Compound 138, rel-4-methyl-3-((3aR,5R,7S,7aR)-1,3,3,5,7-pentamethyloctahydrobenzo[c]isoxazol-5-yl)benzonitrile], the EC50 was less than 0.05 µM.

For the compound `Cc1ccc(C#N)cc1[C@@]1(C)C[C@@H](C)[C@H]2[C@H](C1)C(C)(C)ON2C` (stereo in doubt) [Compound 139, rel-4-methyl-3-((3aS,5S,7R,7aS)-1,3,3,5,7-pentamethyloctahydrobenzo[c]isoxazol-5-yl)benzonitrile], the EC50 lay within 0.05 to 0.3 µM.

For `Cc1ccncc1C1(C)CC(C)C2C(C1)C(C)(C)ON2C` (centres unmarked) [Compound 2, 1,3,3,5,7-pentamethyl-5-(4-methylpyridin-3-yl)octahydrobenzo[c]isoxazole], the half-maximal effective concentration (EC50) was in the range of 0.3 to 1 µM.

`CC1CC(C)(c2cccnc2)CC2C1N(C)OC2(C)C` (centres unmarked) [Compound 3, 1,3,3,5,7-pentamethyl-5-(pyridin-3-yl)octahydrobenzo[c]isoxazole]: the EC50 was 1 to 35 µM.

Take `CC1CC(C)C2C(C1)C(C)(C)ON2C` (centres unmarked) [Compound 5, 1,3,3,5,7-pentamethyloctahydrobenzo[c]isoxazole hydrochloride]: the EC50 fell in the range of 1 to 35 µM.

As to `CC1CCC2C(C1)N(C)OC2(C)C` (centres unmarked) [Compound 6, 1,3,3,6-tetramethyloctahydrobenzo[c]isoxazole], the EC50 lay in the range of 1 to 35 µM.

Take `CC1CC(C)C2C(C1)C1(CCCC1)ON2C` (centres unmarked) [Compound 8, 1,5,7-trimethylhexahydro-1H-spiro[benzo[c]isoxazole-3,1′-cyclopentane]]: the EC50 was 1 to 35 µM.

`CC(C)=CCC1(C)CC(C)C2C(C1)C(C)(C)ON2C(C)C` (centres unmarked) [Compound 10, 1-isopropyl-3,3,5,7-tetramethyl-5-(3-methylbut-2-en-1-yl)octahydrobenzo[c]isoxazole]: the EC50 lay in the range of 0.3 to 1 µM.

Regarding `CC1CC(C)C2C(C1)C(C)(C)ON2C(C)C` (centres unmarked) [Compound 11, 1-isopropyl-3,3,5,7-tetramethyloctahydrobenzo[c]isoxazol-1-ium chloride], the EC50 is 0.3 to 1 µM.

Turning to `CC1CC(C)C2C(C1)C1(CCCC1)ON2C(C)C` (centres unmarked) [Compound 13, 1-isopropyl-5,7-dimethylhexahydro-1H-spiro[benzo[c]isoxazole-3,1-cyclopentane]], the concentration for a half-maximal effect (EC50) was 1 to 35 µM.
